The source of these data is patent US11203600B2 (Denali Therapeutics Inc., priority 2017, dated 2021).

As usually defined, the IC50 is the concentration at which inhibition is half-maximal.

SMILES strings stand for the structures.

For the first assay, the target named is GST-hRIPK1 (8-327) (Homo sapiens (Human), UniProt Q13546). The experiment in a line: Fluorescent Polarization Binding (FP Binding) assay, RIPK1. The settings on record: 10 nM GST-hRIPK1 (8-327), 5 nM fluorescent-labeled ligand, RT, 30 min, mean of at least two independent experiments. Put shortly: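 Binding by fluorescence polarisation at RT: 10 nM baculovirus-expressed GST-hRIPK1 (8-327) and 5 nM fluorescent ligand, 30 min, in 50 mM HEPES pH 7.5, 50 mM MgCl2, 0.02% CHAPS, 1% DMSO. FP read at ex 531/em 595 nm. IC50 from normalised percent inhibition, mean of ≥2 experiments.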
Sequence of GST-hRIPK1 (8-327) (Q13546 8-327): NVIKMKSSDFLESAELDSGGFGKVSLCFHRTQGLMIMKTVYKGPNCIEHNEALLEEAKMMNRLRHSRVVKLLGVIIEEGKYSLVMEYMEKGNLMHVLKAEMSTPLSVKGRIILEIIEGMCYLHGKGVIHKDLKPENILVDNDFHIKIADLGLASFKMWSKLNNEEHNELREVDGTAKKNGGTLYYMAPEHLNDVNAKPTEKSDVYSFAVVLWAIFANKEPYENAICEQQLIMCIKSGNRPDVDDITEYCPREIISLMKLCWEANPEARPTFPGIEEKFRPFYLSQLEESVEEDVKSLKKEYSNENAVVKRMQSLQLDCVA
In turn, `Cc1ccnc(N2CCC(F)(C(=O)N3CCOc4c(C#N)cncc4C3)CC2)n1` [Example 162, 4-[4-fluoro-1-(4-methylpyrimidin-2-yl)piperidine-4-carbonyl]-3,5-dihydro-2H-pyrido[3,4-f][1,4]oxazepine-9-carbonitrile] gave an IC50 of 100 to 1000 nM.

With `COc1ccc2c(c1)OCCN(C(=O)C(C)(C)C(F)F)C2` [Example 12, 3,3-difluoro-1-(8-methoxy-3,5-dihydro-2H-14-benzoxazepin-4-yl)-2,2-dimethyl-propan-1-one], the IC50 was 100 to 1000 nM.

`N#Cc1cncc2c1OCCN(C(=O)C1(F)CCN(c3ncc4c(n3)COC4)CC1)C2` [Example 165, 4-[1-(5,7-dihydrofuro[3,4-d]pyrimidin-2-yl)-4-fluoro-piperidine-4-carbonyl]-3,5-dihydro-2H-pyrido[3,4-f][1,4]oxazepine-9-carbonitrile] gave an IC50 of 100 to 1000 nM.

In the case of `N#Cc1cncc2c1OCCN(C(=O)C1(F)CCN(c3cccnn3)CC1)C2` [Example 116, 4-(4-fluoro-1-pyridazin-3-yl-piperidine-4-carbonyl)-3,5-dihydro-2H-pyrido[3,4-f][1,4]oxazepine-9-carbonitrile], the IC50 is 100 to 1000 nM.

As for `O=C(C1CCN(c2ncc(F)cn2)CC1)N1CCOc2c(F)cncc2C1` [Example 156, (9-fluoro-3,5-dihydro-2H-pyrido[3,4-f][1,4]oxazepin-4-yl)-[1-(5-fluoropyrimidin-2-yl)-4-piperidyl]methanone], the IC50 fell in the range of 0.1 to 100 nM.

Take `CC1(C(=O)N2CCOc3c(C#N)cncc3C2)CCOCC1` [Example 41, 4-(4-methyltetrahydropyran-4-carbonyl)-3,5-dihydro-2H-pyrido[3,4-f][1,4]oxazepine-9-carbonitrile]: the IC50 is 100 to 1000 nM.

Consider `CC(C)(C(=O)N1CCOc2c(C#N)cncc2C1)C1CCN(c2ncc(F)cn2)C1` (stereo not shown) [Example 90, 4-[2-[1-(5-fluoropyrimidin-2-yl)pyrrolidin-3-yl]-2-methyl-propanoyl]-3,5-dihydro-2H-pyrido[3,4-f][1,4]oxazepine-9-carbonitrile], for which the IC50 fell in the range of 0.1 to 100 nM.

`CCC(C)(C)C(=O)N1CCOc2ccc(F)cc2C1` [Example 32, 1-(7-fluoro-2,3,4,5-tetrahydro-1,4-benzoxazepin-4-yl)-2,2-dimethylbutan-1-one] showed an IC50 of 0.1 to 100 nM.

As to `N#Cc1cncc2c1OCCN(C(=O)C1(F)CCN(c3nccc(C(F)(F)F)n3)CC1)C2` [Example 167, 4-[4-fluoro-1-[4-(trifluoromethyl)pyrimidin-2-yl]piperidine-4-carbonyl]-3,5-dihydro-2H-pyrido[3,4-f][1,4]oxazepine-9-carbonitrile], the IC50 lay in the range of 100 to 1000 nM.

Consider `CCC(C)C(=O)N1Cc2cncc(C#N)c2OC[C@H]1C` (stereo partly drawn) [Example 76, (3R)-3-methyl-4-(2-methylbutanoyl)-3,5-dihydro-2H-pyrido[3,4-f][1,4]oxazepine-9-carbonitrile], for which the IC50 was in the range of 100 to 1000 nM.

Still in this assay, the particulars now being: GST-hRIPK1 (8-327), mean of at least two independent experiments.
In the case of `COCCOc1nc(N2CCC(C)(C(=O)N3CCOc4c(C#N)cncc4C3)C(F)(F)C2)ncc1F` (stereo not shown) [Example 217, 4-[3,3-difluoro-1-[5-fluoro-4-(2-methoxyethoxy)pyrimidin-2-yl]-4-methyl-piperidine-4-carbonyl]-3,5-dihydro-2H-pyrido[3,4-f][1,4]oxazepine-9-carbonitrile], the concentration for half-maximal inhibition (IC50) lay in the range of 0.1 to 100 nM.

As to `CC(C)(C(=O)N1CCOc2c(C#N)cncc2C1)C1CC(n2nccn2)C1` (stereo not shown) [Example 275, 4-[2-Methyl-2-[3-(triazol-2-yl)cyclobutyl]propanoyl]-3,5-dihydro-2H-pyrido[3,4-f][1,4]oxazepine-9-carbonitrile], the IC50 was 100 to 1000 nM.

As for `CC(F)C(C)(C)C(=O)N1CCOc2c(C#N)cncc2C1` (single isomer, unassigned) [Example 270, 4-(3-fluoro-2,2-dimethyl-butanoyl)-3,5-dihydro-2H-pyrido[3,4-f][1,4]oxazepine-9-carbonitrile], the IC50 is 0.1 to 100 nM.

As for `O=C(C1CCN(c2ncc(F)cn2)CC1)N1CCCc2ccccc2C1` [Example 203, [1-(5-fluoropyrimidin-2-yl)-4-piperidyl]-(1,3,4,5-tetrahydro-2-benzazepin-2-yl)methanone], the IC50 lay in the range of 100 to 1000 nM.

As for `O=C(C1CCN(c2nccc3ncnn23)CC1(F)F)N1CCOc2c(F)cncc2C1` (stereo not shown) [Example 251, [3,3-difluoro-1-([1,2,4]triazolo[1,5-c]pyrimidin-5-yl)-4-piperidyl]-(9-fluoro-3,5-dihydro-2H-pyrido[3,4-f][1,4]oxazepin-4-yl)methanone], the concentration for half-maximal inhibition (IC50) was in the range of 100 to 1000 nM.

The compound `CCC(C)(C(=O)N1CCOc2c(C#N)cncc2C1)C(F)F` (single isomer, unassigned) [Example 260, 4-(2-(Difluoromethyl)-2-methylbutanoyl)-2,3,4,5-tetrahydropyrido[3,4-f][1,4]oxazepine-9-carbonitrile] displayed an IC50 of 0.1 to 100 nM.

`N#Cc1cncc2c1OCCN(C(=O)C1CCN(c3ccnc4c(F)cnn34)CC1)C2` [Example 228, 4-[1-(3-fluoropyrazolo[1,5-a]pyrimidin-7-yl)piperidine-4-carbonyl]-3,5-dihydro-2H-pyrido[3,4-f][1,4]oxazepine-9-carbonitrile] displayed an IC50 of 0.1 to 100 nM.

`COC1CN(c2ncc(F)cn2)CCC1C(=O)N1CCOc2c(C#N)cncc2C1` (stereo not shown) [Example 309, 4-[1-(5-fluoropyrimidin-2-yl)-3-methoxy-piperidine-4-carbonyl]-3,5-dihydro-2H-pyrido[3,4-f][1,4]oxazepine-9-carbonitrile]: the IC50 fell in the range of 100 to 1000 nM.

`N#Cc1cncc2c1OCCN(C(=O)C1CCN(c3ccnc4c(F)cnn34)CC1F)C2` (single isomer, unassigned) [Example 304, 4-[3-Fluoro-1-(3-fluoropyrazolo[1,5-a]pyrimidin-7-yl)piperidine-4-carbonyl]-3,5-dihydro-2H-pyrido[3,4-f][1,4]oxazepine-9-carbonitrile] displayed an IC50 of 0.1 to 100 nM.
